{
  "source": "patent US20180221343A1",
  "about": "“PHARMACEUTICAL COMPOSITION FOR PREVENTING OR TREATING MACULAR DEGENERATION” (KOREA RESEARCH INSTITUTE OF CHEMICAL TECHNOLOGY, priority 2011, published 2018)",
  "key": {"[1]": {"assay": "Retinal delivery of eye drop formulation (levels in ocular tissues and plasma)", "assay_type": "in vivo, Rats", "details": "eye drop 50 μl of Formulation Example 1", "protocol": "We evaluated whether the eye drop formulation containing (2R,3R,4S)-6-amino-4-[N-(4-chlorophenyl)-N-(1H-imidazol-2-ylmethyl)amino]-3-hydroxy-2-methyl-2-dimethoxymethyl-3,4-dihydro-2H-1-benzopyran is penetrated through the cornea and then delivered to the retina. Rats (8 weeks old) were used in the test; and the eye drop formulation (50 μl) prepared in the following Formulation Example 1 was dropped on each rat's eye."}, "corneal angiogenesis": {"tested_on": "corneal angiogenesis", "assay": "Inhibitory effects against corneal angiogenesis in animal models having corneal damage (subconjunctival injection)", "assay_type": "in vivo, Sprague Dawley rats", "details": "subconjunctival injection 20 μl; KR 0.3 mg/ml, Avastin 10 mg/ml; 1 week after administration", "protocol": "The tests were performed by using Sprague Dawley rats (8 weeks old, male) as animals having corneal damage (15 rats for the experiment group; and 1 rat for normal group, respectively). The corneal damage was induced by applying a cotton swab coated with silver nitrate to the surface of the rat corneas, as as to induce a damage having a diameter of 2 mm in the central cornea. On the third day after inducing the corneal damages, we confirmed the establishment of corneal angiogenesis-inducing models and then subconjunctivally injected a solution (20 μl) prepared by dissolving the compound of Preparation Example 23, i.e., (2R,3R,4S)-6-amino-4-[N-(4-chlorophenyl)-N-(1H-imidazol-2-ylmethyl)amino]-3-hydroxy-2-methyl-2-dimethoxymethyl-3,4-dihydro-2H-1-benzopyran (KR-31831) in phosphate buffered saline (PBS) containing 10% PEG 400, in the concentration of 0.3 mg/ml. In case of the control group, the PBS (20 μl) containing 10% PEG 400 was subconjunctivally injected. As a positive control, a solution (20 μl) prepared by dissolving Avastin (used as an angiogenesis inhibitor) in PBS in the concentration of 10 mg/ml was subconjunctivally injected. The evaluations quantifying the photographs of FIG. 1 were performed by using the Image J (NIH, USA) program and the results thereof were shown in FIG. 2."}, "VEGF receptor 2 (FLK-1)": {"tested_on": "VEGF receptor 2 (FLK-1)", "assay": "Expression of VEGF receptor 2 (FLK-1) in corneal tissue by RT-PCR", "assay_type": "in vivo, rats", "details": "subconjunctival injection 20 μl; KR 0.3 mg/ml, Avastin 10 mg/ml", "protocol": "The tests were performed for confirming corneal angiogenesis as a marker. To a Trizole™ solution (200 μl), were added each corneal tissue obtained from the rats of Example 1. Total RNAs were isolated and then cDNAs were prepared by using a reverse transcriptase. Each cDNA (5 μl) was mixed with the primer set of FLK-1 and then PCR amplication was performed in a thermocycler under the following conditions; denaturation at 94° C. for 5 minutes, and then 35 cycles of denaturation at 94° C. for 20 seconds, annealing at 58° C. for 1 minute, and extension at 72° C. for 25 seconds. Each PCR product was loaded on 1% agarose gel; and the resulting ethidium bromide fluorescent bands were identified."}, "[2]": {"tested_on": "rat corneal epithelial wound", "assay": "Corneal Wound Healing Assay (2)", "assay_type": "in vivo, SD rats", "details": "topical 3 and 6 mg/ml every 6 hour; observed at 0 and 18 hours", "protocol": "SD rats (male, 8 weeks, 250 g) were used. Animal study protocol was in accordance with the Association for Research in Vision and Ophthalmology Statement for the Use of Animals in Ophthalmic and Visual Research. All animals were housed in individual cages and maintained under standard conditions (12 hour light-dark cycle).\nRats were anesthetized by Zoletil® (50 mg/kg, Tiletamina 25 mg, Zolazepam 25 mg; Vibrac, Carros, France) and Rompun® (10 mg/kg, Bayer, France). The cornea was anesthetized by topical 0.5% proparacaine (Alcaine®; Alcon, Fort Worth, Tex., USA). After applying 0.5% proparacaine drops, 5.0 mm Trephine Blade® (Katena, Denville, N.J., USA) was placed and fixed firmly on the corneal surface. One drop of 20% ethanol were put into the tephine well and left in place for 30 seconds, then absorbed with a dry cellulose sponge (Merocel®; Medtronic Solan, Jacksonville, Fla., USA) and irrigated with normal saline. And the epithelium was removed in 6.0 mm diameter.\nThe drugs were each topically applied in 3 mg/ml (0.3%) and 6 mg/ml (0.6%) concentrations (in 5% DMSO, 10% PEG (Mw 400) and 85% saline (0.9% NaCl)) in every 6 hour, respectively.\nThe corneal wounds were captured by digital camera under cobalt blue light and the defect area was analyzed by Image J software (Ver 4.1, NIH). The significance between Vehicle and each group was analyzed by paired T-test, and the significance of the test was analyzed by One Way ANOVA analysis."}, "retinal angiogenesis": {"tested_on": "retinal angiogenesis", "assay": "Laser-induced retinal damage model in micro pigs, fluorescein intensity", "assay_type": "in vivo, Yutacan Micro pigs", "protocol": "The tests were performed by using Yutacan Micro pigs (3 kg, male) as animal models having retinal damage (15 pigs for the experiment group). The retinal macular degeneration models were established according to the same procedures as in Brown Norway rats of Example 5. The eye drop formulation (100 μl, 0.9 mg/ml) prepared according to the same procedures as in Example 2 was administered four times per day for 2 weeks. For vitreous injection, the solution of the same compound (20 μl, 0.3 mg/ml) was injected into the vitreous humor once. 2 weeks after the administrations, 1% fluorescein was intravenously injected so as to observe the laser-induced damage site; and the effects of the compound of the present invention, i.e., (2R,3R,4S)-6-amino-4-[N-(4-chlorophenyl)-N-(1H-imidazol-2-ylmethyl)amino]-3-hydroxy-2-methyl-2-dimethoxymethyl-3,4-dihydro-2H-1-benzopyran. The evaluations quantifying the photographs of FIG. 9 were performed by using the Image J (NIH, USA) program and the results thereof were shown in FIG. 10."}, "corneal epithelial cells": {"tested_on": "corneal epithelial cells", "assay": "Effects on normal regeneration of corneal epithelial cells in animal models", "assay_type": "in vivo, rats", "details": "eye drop 50 μl twice a day", "protocol": "Animal models having damage in the corneal epithelial cells were established by anesthetizing rats (8 weeks old, 200 g to 250 g) with a mixed solution of rompun and zoletil (1 ml/kg) and then scraping the corneal epithelial cells at the center of the cornea in a circular form having 2 mm diameter with a surgical knife. The removal of corneal epithelial cells was confirmed with a 1% fluorescein solution. The eye drop formulation (50 μl) used in Example 2 was administered twice a day, i.e., every 12 hours. The evaluations quantifying the photographs of FIG. 5 were performed by using the Image J (NIH, USA) program and the results thereof were shown in FIG. 6."}},
  "data": [
    {"smiles": "COC(OC)[C@]1(C)Oc2ccc(N)cc2[C@H](N(Cc2ncc[nH]2)c2ccc(Cl)cc2)[C@H]1O", "note": "[KR-31831, (2R,3R,4S)-6-amino-4-[N-(4-chlorophenyl)-N-(1H-imidazol-2-ylmethyl)amino]-3-hydroxy-2-methyl-2-dimethoxymethyl-3,4-dihydro-2H-1-benzopyran]", "values": [
      {"measurement": "level in Aqueous humor", "setting": "[1]; 30 minutes", "value": 1250, "unit": "ng/mL"},
      {"measurement": "level in Retina", "setting": "[1]; 30 minutes", "value": 846, "unit": "ng/mL"},
      {"measurement": "level in Vitreous humor", "setting": "[1]; 30 minutes", "value": 195, "unit": "ng/mL"},
      {"measurement": "level in Aqueous humor", "setting": "[1]; 120 minutes", "value": 827, "unit": "ng/mL"},
      {"measurement": "level in Plasma", "setting": "[1]; 120 minutes", "value": 0.9, "unit": "ng/mL"},
      {"measurement": "level in Retina", "setting": "[1]; 120 minutes", "value": 225, "unit": "ng/mL"},
      {"measurement": "level in Vitreous humor", "setting": "[1]; 120 minutes", "value": 194, "unit": "ng/mL"},
      {"measurement": "corneal angiogenesis in comparison with the corneal angiogenesis (100%) of the control group", "setting": "corneal angiogenesis", "value": "52.6±10", "unit": "%"},
      {"measurement": "FLK-1 expression in the cornea (control group 100%)", "setting": "VEGF receptor 2 (FLK-1)", "value": "about 30%"},
      {"measurement": "inhibitory effect on normal healing of rat corneal epithelial wound", "setting": "[2]", "value": "did not show inhibitory effect"},
      {"measurement": "intensity at laser-induced damage site (non-drug administered control group = 1)", "setting": "retinal angiogenesis; eye drop formulation 100 μl, 0.9 mg/ml, 4 times per day, 2 weeks", "value": "0.46±0.17"},
      {"measurement": "intensity at laser-induced damage site (non-drug administered control group = 1)", "setting": "retinal angiogenesis; vitreous injection 20 μl, 0.3 mg/ml, once, 2 weeks after", "value": "0.36±0.14"},
      {"measurement": "healing rate of corneal epithelial damage", "setting": "corneal epithelial cells; 0 hour after the administration", "value": "52±9", "unit": "%"},
      {"measurement": "healing rate of corneal epithelial damage", "setting": "corneal epithelial cells; 18 hours after the administration", "value": "55±9", "unit": "%"},
      {"measurement": "healing rate of corneal epithelial damage", "setting": "corneal epithelial cells; 36 hours after the administration", "value": "94±8", "unit": "%"}
    ]}
  ]
}
